In patent US6667157B1, “Compositions and methods for the abrogation of cellular proliferation utilizing the human immunodeficiency virus VPR protein” (priority 1994, dated 2003):

Columns and labels:
[1] = tested on: HIV LTR; assay: LTR-CAT assay in RD cells transfected with pBennCAT; format: cell-based, HIV-1; conditions: for increase in CAT activity over the controls: agent added to medium of LTR-CAT transfected RD cells, harvested 48 hours later
Procedure: Induction of the HIV-LTR was measured as a function of a reporter gene (CAT) function. pBennCAT, an LTR-CAT encoding construct, obtained from M. Martin, through the NIH ARRRP was used. The levels of CAT protein were measured using a CAT ELISA capture assay (Boehringer Mannheim), following manufacturer's specifications. The levels of CAT activity were measured by a chloramphenicol acetyltransferase assay, according to published procedures (Gorman, et al., 1982, The Rous sarcoma virus long terminal repeat is a strong promoter when introduced into a variety of eukaryotic cells by DNA mediated transfection. Proc. Natl. Acad. Sci. USA. 79, 6777-6781). Briefly, RD cells were transfected with pBennCAT (Gendelman, 1986, Trans-activation of the Human immunodeficiency virus long terminal repeat sequence by DNA viruses. Proc. Natl. Acad. Sci. USA. 83, 9759-9763), using DOTAP. Cells were washed 12 hours later and new medium, containing the test reagents was added to the cell monolayers. 48 hours later, cells were washed three times with Ca+2/Mg+2 free PBS. Cells were then scraped off the plate, and collected with 1 ml PBS. Cell pellets were lysed by resuspending them in 100 μl 0.25M Tris, pH 7.8, and undergoing three freeze-thaw cycles using an ethanol-dry ice bath, and a 37° C. water bath. Lysates were spun at 12,000 G for 5 minutes and samples were stored at −20° C. until they were used. The CAT reaction was set up using 5 μl C^14 chloramphenicol (40-50 mCi/mmole), 70 μl ddH2O, 35 μl 1M Tris, pH 7.8, 20 μl 4 mM acetyl Coa (Pharmacia), 20 μl cell lysate. The reactions were incubated at 37° C. for an hour, and subsequently extracted with 1 ml ethyl acetate. After resuspension in 20 μl ethyl acetate, samples were spotted on the silica gel TLC plates (Whatman), and developed in chloroform:methanol (95:5); ascending. Gels were dried and exposed to film (Kodak XAR) overnight at room temperature. The panel of HIV-1 LTR/CAT mutants were obtained from Dr. Joseph Stevens, through the NIH ARRRP. pGRE5/CAT was obtained from United States Biochemicals.
The possibility that activation of the GR pathway could play a central role in the viral transcription process was considered. To test this, RD cells were transfected with an LTR-CAT encoding plasmid (pBennCAT) (Gendelman, 1986, supra), without selection. 12 hours later, the cell monolayers were washed and fresh medium containing the test reagents was added to the cultures, and 48 hours later the cells were harvested. In these studies, the co-transfection of a vpr encoding plasmid with the LTR-CAT encoding plasmid produced an increase in CAT activity of 5-10 fold over the controls, as has been previously reported. […] Vpr protein was detected in the tissue culture media of these cells, as assessed by capture ELISA.

[2] = tested on: rip-1; assay: rip-1 cytoplasmic to nuclear translocation (cellular fractionation, vpr-ligand blot); format: cell-based; conditions: for nuclear translocation of rip-1: exposure of cells to agent, steroids at 10^−6M
Procedure: 3×10^6 cells were washed twice in PBS, and lysed in 200 μl of lysis buffer (150 mM NaCl, 50 mM Tris, pH 8.0, 0.5% Triton X-100, plus protease inhibitors: aprotinin, leupeptin, pepstatin A, each at 2 μg/ml; PMSF, 1 mM, and EDTA, 1 mM). Cell suspension was incubated on ice for 10 minutes with frequent vortexing, and centrifuged at 12000 g for 6 minutes. The soluble, as well as the insoluble fractions were run on 12% SDS-PAGE, and transferred to PVDF membranes (Millipore), as described. Membranes were blocked with 5% non fat dry milk, in TBS supplemented with 0.05% Tween-20. Blocked membranes were incubated with either purified vpr protein (approximately 50 ng/ml) or an irrelevant protein. These membranes were then incubated with 808 rabbit anti vpr antiserum Levy, et al. 1994b, supra, followed by I^125 protein G (NEN), and exposed to film for at least 12 hours at −80° C.

[3] = tested on: HIV-1 NL43 Δvpr; assay: Complementation in trans of HIV-1 NL43 Δvpr in nonproductively infected U937 cells (virus production); format: cell-based; conditions: for complementation in trans of HIV-1 NL43 Δvpr virus: agent added to tissue culture medium of nonproductively infected U937 cells
Procedure: (§1) The following cell lines were obtained from the American Type Culture Collection; TE671 human embryonal rhabdomyosarcoma (ATCC HTB139), A673 embryonal rhabdomyosarcoma (ATCC CRL 1598), D17 canine osteosarcoma (ATCC CCL183), HOS human osteosarcoma (ATCC CRL 1543), U373 human glioblastoma (ATCC HTB17), SK-N-MC neuroblastoma (ATCC HTB10). Two additional glioblastoma lines were kindly provided by the Medical Research Council (MRC), England, (HT17 and HT16). U87MG (HTB14) is a glial cell line obtained from the University of Pennsylvania Cell Center. RD rhabdomyosarcoma cells were provided by Dr. A. Srinivasan. The T lymphocytic cells H9 and SupT-I were obtained from the University of Pennsylvania Cell Center, and KG-1 was obtained from Dr. G. Trinchieri. The murine NIH 3T3 line was obtained from ATCC. BSC-1, CV-1 and COS cell lines were obtained Dr. B. Moss. Primary PBL as well as primary monocytes/macrophages were isolated as in Levy, et al. 1994b, supra. All non-hematopoietic cells were cultured in DMEM with 10% heat inactivated fetal calf serum, penicillin/streptomycin, I-glutamine, Hepes (25 mM) and sodium pyruvate. Hematopoietic cells were cultured in RPMl 1640 as above except using 10% autologous human serum. Virus were prepared as described in Levy, et al., 1994b, supra; Levy, et al., 1994a, supra, which are incorporated herein by reference.
The rabbit anti-vpr peptide serum (aa 2-21, “808”) was obtained from Bryan Cullen through the NIH ARRRP. The human anti-gag p24 (V7.8) was obtained from Ronald Kennedy through the NIH ARRRP. The sheep anti-p24 was obtained from the FDA through the NIH ARRRP. […]
Such nonproductively infected cells can be rescued for p24 production by addition of exogenous vpr protein (Levy, et al., 1994a, supra; Levy, et al., 1994b, supra). […] When the nonproductively infected U937 cells described above were exposed to vpr protein, rip-1 translocated 12 hours later, and virus was first detected in the media 36 hours after the initial exposure to vpr. […]

[4] = tested on: HIV-1 NL43; assay: Virus production by HIV-1 NL43 infected U937 cells; format: cell-based
Procedure: as §1, with “reference. […]” for “reference.”

Compound | increase in CAT activity over the controls [1] | nuclear translocation of rip-1 [2] | complementation in trans of HIV-1 NL43 Δvpr virus [3] | other results
CC#C[C@]1(O)CC[C@H]2[C@@H]3CCC4=CC(=O)CCC4=C3[C@@H](c3ccc(N(C)C)cc3)C[C@@]21C [mifepristone] |  |  |  | effect on increase in CAT activity stimulated by vpr protein or steroids ([1]; cultures supplemented with mifepristone): inhibited; effect on increase in CAT activity in cells cotransfected with vpr encoding plasmid and LTR-CAT plasmid ([1]; mifepristone): blocked; effect on vpr induced translocation of rip-1 ([2]; mifepristone 10^−6M): inhibited; effect on rip-1 nuclear translocation induced by Dexamethasone and Hydrocortisone ([2]; mifepristone added to culture medium, 10^−6M): blocked; effect on transcomplementation of HIV-1 NL43 Δvpr infected U937 cells by vpr protein ([3]; mifepristone treatment): abolished; levels of virus produced, lower than the untreated cultures ([4]; HIV-1 infected cells exposed to mifepristone, 10^−6M): about 70%; inhibition of the enhancement in virus production by addition of vpr protein ([4]; infected cells plus vpr protein, mifepristone 10^−6M): 80-90 % inhibition
C[C@@H]1C[C@H]2[C@@H]3CCC4=CC(=O)C=C[C@]4(C)[C@@]3(F)[C@@H](O)C[C@]2(C)[C@@]1(O)C(=O)CO [Dexamethasone] | ca. 50 fold |  |  | 
C[C@]12CCC(=O)C=C1CC[C@@H]1[C@@H]2[C@@H](O)C[C@@]2(C)[C@H]1CC[C@]2(O)C(=O)CO [Hydrocortisone] | ca. 50 fold | induced the nuclear translocation of rip-1 | complemented in trans | 
cyclodextrin |  | failed to induce the nuclear translocation of rip-1 | not affected | 
CCCCCCCCCCCCCC(=O)O[C@@H]1[C@@H](C)[C@@]2(O)[C@@H](C=C(CO)C[C@]3(O)C(=O)C(C)=C[C@@H]23)[C@@H]2C(C)(C)[C@]12OC(C)=O [PMA] |  | not |  | 
